Laboratory results as given in patent US20240336654A1, “ANTIMICROBIAL PEPTIDOMIMETICS” (SPEXIS AG, priority 2021, published 2024).
Where a SMILES comes first, the peptide text is derived from it. Bridges are numbered along the chain shown (N, C = ends). [ ]: non-standard residue; d: D form. The star is where a group is joined. Val(Nα-amidino) = CC(C)[C@H](NC(=N)N)C(=O)*; Hyp = O=C(O)[C@@H]1C[C@@H](O)CN1; Agb = N=C(N)NCC[C@H](N)C(=O)O; Pen = CC(C)(S)[C@H](N)C(=O)O; X1 = CC[C@H](NC(=N)N)C(=O)*; dDab = NCC[C@@H](N)C(=O)O; Orn = NCCC[C@H](N)C(=O)O; Dab = NCC[C@H](N)C(=O)O

How the values were obtained:
Format in all cases: cell-based
[1] = system: human red blood cells (hRBC); conditions: red cells of human, 1 h, 200 μg/mL
Method in brief: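 Peptides at 200 μg/mL incubated 1 h at 37 °C with 20% (v/v) washed human RBC, shaking. Hemolysis from supernatant OD540, expressed as percent of 2.5% Triton X-100 lysis, with PBS as 0%.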

[2] = system: Escherichia coli ATCC 25922; conditions: ATCC 25922
Method in brief: (§1)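 The MIC is the lowest peptide concentration, in μg/mL, with no visible growth after 18-20 h incubation at 35 °C. Serial two-fold peptide dilutions in water with 0.002% P-80 final were added to bacteria in cation-adjusted MHII broth, about 5×10^5 CFU/mL, following modified CLSI microdilution.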

[3] = system: Klebsiella pneumoniae SSI3010; conditions: SSI3010
Method in brief: as §1

[4] = system: Escherichia coli MCR-1 Af 45; conditions: MCR-1 Af 45
Method in brief: as §1

Row | SMILES | Hemolysis at 0.2 g/L [1] [%] | Escherichia coli ATCC 25922 MIC [2] [µg/mL] | Klebsiella pneumoniae SSI3010 MIC [3] [µg/mL] | Escherichia coli MCR-1 Af45 MIC [4] [µg/mL]
1 | CC[C@H](C)[C@H](NC(=O)[C@@H]1C[C@@H](O)CN1C(=O)[C@@H](NC(=N)N)C(C)C)C(=O)N[C@@H]1C(=O)N[C@@H](Cc2ccc(O)cc2)C(=O)N[C@@H](CCN)C(=O)N[C@@H](CC(N)=O)C(=O)N[C@@H](CCCNC(=N)N)C(=O)N[C@@H](CCN)C(=O)N[C@@H]([C@@H](C)O)C(=O)N[C@H](CCN)C(=O)N[C@@H](CCCCN)C(=O)N[C@@H]([C@@H](C)O)C(=O)N[C@@H](CO)C(=O)N[C@H](C(=O)N[C@@H](Cc2ccc(O)cc2)C(=O)O)CSSC1(C)C [Example 74, Gua-Val-Hyp-Ile-Pen-Tyr-Dab-Asn-Arg-Dab-Thr-^DDab-Lys-Thr-Ser-Cys-Tyr] ({Val(Nα-amidino)}-[Hyp]I[Pen]Y[Dab]NR[Dab]T[dDab]KTSCY-OH; disulfide 3-14) | <1 | 0.25 | 0.25 | 0.25
2 | CC[C@H](C)[C@H](NC(=O)[C@@H]1C[C@@H](O)CN1C(=O)[C@@H](NC(=N)N)C(C)C)C(=O)N[C@@H]1C(=O)N[C@@H](Cc2ccc(O)cc2)C(=O)N[C@@H](CO)C(=O)N[C@@H](CC(N)=O)C(=O)N[C@@H](CCCNC(=N)N)C(=O)N[C@@H](CCN)C(=O)N[C@@H]([C@@H](C)O)C(=O)N[C@H](CCN)C(=O)N[C@@H](CCCCN)C(=O)N[C@@H](CCN)C(=O)N[C@@H](CCNC(=N)N)C(=O)N[C@H](C(=O)N[C@@H](Cc2ccc(O)cc2)C(=O)O)CSSC1(C)C [Example 75, Gua-Val-Hyp-Ile-Pen-Tyr-Ser-Asn-Arg-Dab-Thr-^DDab-Lys-Dab-Agb-Cys-Tyr] ({Val(Nα-amidino)}-[Hyp]I[Pen]YSNR[Dab]T[dDab]K[Dab][Agb]CY-OH; disulfide 3-14) | <1 | 0.125 | 0.125 | 0.0625
3 | CC[C@H](NC(=N)N)C(=O)N1C[C@H](O)C[C@H]1C(=O)N[C@H](C(=O)N[C@@H]1C(=O)N[C@@H](Cc2ccc(O)cc2)C(=O)N[C@@H](CO)C(=O)N[C@@H](CC(N)=O)C(=O)N[C@@H](CCCNC(=N)N)C(=O)N[C@@H](CCN)C(=O)N[C@@H]([C@@H](C)O)C(=O)N[C@H](CCN)C(=O)N[C@@H](CCCCN)C(=O)N[C@@H](CCN)C(=O)N[C@@H](CCN)C(=O)N[C@H](C(=O)N[C@@H](Cc2ccc(O)cc2)C(=O)O)CSSC1(C)C)[C@@H](C)CC [Example 76, Gua-Abu-Hyp-Ile-Pen-Tyr-Ser-Asn-Arg-Dab-Thr-^DDab-Lys-Dab-Dab-Cys-Tyr] (X1-[Hyp]I[Pen]YSNR[Dab]T[dDab]K[Dab][Dab]CY-OH; disulfide 3-14) | <1 | 1 | 0.25 | 0.5
4 | CC[C@H](C)[C@H](NC(=O)[C@@H]1C[C@@H](O)CN1C(=O)[C@@H](NC(=N)N)C(C)C)C(=O)N[C@@H]1C(=O)N[C@@H](Cc2ccc(O)cc2)C(=O)N[C@@H](CO)C(=O)N[C@@H](CC(N)=O)C(=O)N[C@@H](CCCNC(=N)N)C(=O)N[C@@H](CCN)C(=O)N[C@@H]([C@@H](C)O)C(=O)N[C@H](CCN)C(=O)N[C@@H](CCCCN)C(=O)N[C@@H](CCCN)C(=O)N[C@@H](CO)C(=O)N[C@H](C(=O)N[C@@H](Cc2ccc(O)cc2)C(=O)O)CSSC1(C)C [Example 77, Gua-Val-Hyp-Ile-Pen-Tyr-Ser-Asn-Arg-Dab-Thr-^DDab-Lys-Orn-Ser-Cys-Tyr] ({Val(Nα-amidino)}-[Hyp]I[Pen]YSNR[Dab]T[dDab]K[Orn]SCY-OH; disulfide 3-14) | <1 | 0.25 | 0.25 | 0.5
5 | CC[C@H](C)[C@H](NC(=O)[C@@H]1C[C@@H](O)CN1C(=O)[C@@H](N)C(C)C)C(=O)N[C@H]1CCNC(=O)CC[C@@H](C(=O)N[C@@H](Cc2ccc(O)cc2)C(=O)O)NC(=O)[C@H](CCN)NC(=O)[C@H](CCN)NC(=O)[C@H](CCCCN)NC(=O)[C@@H](CCN)NC(=O)[C@H]([C@@H](C)O)NC(=O)[C@H](CCN)NC(=O)[C@H](CCCNC(=N)N)NC(=O)[C@H](CC(N)=O)NC(=O)[C@H](CO)NC(=O)[C@H](Cc2ccc(O)cc2)NC1=O [Example 78, Val-Hyp-Ile-Dab-Tyr-Ser-Asn-Arg-Dab-Thr-^DDab-Lys-Dab-Dab-Glu-Tyr] (H-V[Hyp]I[Dab]YSNR[Dab]T[dDab]K[Dab][Dab]EY-OH; lactam 4-15) | <1 | 0.125 | 0.25 | 0.125
6 | CC[C@H](C)[C@H](NC(=O)[C@@H]1C[C@@H](O)CN1C(=O)[C@@H](N)C(C)C)C(=O)N[C@H]1CCC(=O)NCC[C@@H](C(=O)N[C@@H](Cc2ccc(O)cc2)C(=O)O)NC(=O)[C@H](CCN)NC(=O)[C@H](CCN)NC(=O)[C@H](CCCCN)NC(=O)[C@@H](CCN)NC(=O)[C@H]([C@@H](C)O)NC(=O)[C@H](CCN)NC(=O)[C@H](CCCNC(=N)N)NC(=O)[C@H](CC(N)=O)NC(=O)[C@H](CO)NC(=O)[C@H](Cc2ccc(O)cc2)NC1=O [Example 79, Val-Hyp-Ile-Glu-Tyr-Ser-Asn-Arg-Dab-Thr-^DDab-Lys-Dab-Dab-Dab-Tyr] (H-V[Hyp]IEYSNR[Dab]T[dDab]K[Dab][Dab][Dab]Y-OH; lactam 4-15) | <1 | 0.125 | 0.25 | 0.0625
7 | CC[C@H](C)[C@H](NC(=O)[C@@H]1C[C@@H](O)CN1C(=O)[C@@H](NC(=N)N)C(C)C)C(=O)N[C@@H]1C(=O)N[C@@H](Cc2ccc(O)cc2)C(=O)N[C@@H]([C@@H](C)O)C(=O)N[C@@H](CC(N)=O)C(=O)N[C@@H](CCCNC(=N)N)C(=O)N[C@@H](CCN)C(=O)N[C@@H](CO)C(=O)N[C@H](CCN)C(=O)N[C@@H](CCCCN)C(=O)N[C@@H](CCN)C(=O)N[C@@H](CCN)C(=O)N[C@H](C(=O)N[C@@H](Cc2ccc(O)cc2)C(=O)O)CSSC1(C)C [Example 80, Gua-Val-Hyp-Ile-Pen-Tyr-Thr-Asn-Arg-Dab-Ser-^DDab-Lys-Dab-Dab-Cys-Tyr] ({Val(Nα-amidino)}-[Hyp]I[Pen]YTNR[Dab]S[dDab]K[Dab][Dab]CY-OH; disulfide 3-14) | <1 | 0.125 | 0.125 | 0.0625
